Measurements taken from patent publication US4874773A, “3-Aminocarbonyl-1,4-dihydropyridine-5-carboxylic acid compounds, and pharmaceutical composition containing the same” (priority 1985, dated 1989).
“Also recorded” adds a separate entry of the source. Like-named read-outs stand apart in the source and are kept apart here.

Assays:
[1] = system: Spontaneously hypertensive male rats; assay: Experiment 1-1 Hypotensive activity (oral, conscious spontaneously hypertensive rats); assay type: in vivo, rat; settings: for Maximum hypotension: mean blood pressure; for hypotensive activity (in words): Table 4, comparison with nifedipine and nicardipine hydrochloride where stated
[2] = Experiment 4-1 Acute toxicity; settings: rat, in vivo; oral, male rats, 5 week age, 7 days
Description: Wistar male rats (5 week age, weighing 105-135 g) were used. The compounds of Example Nos. 2, 3 and 7 were each orally administered to the animals in the form of a suspension in 0.5% methyl cellulose solution.

isolated aorta = assay: Experiment 3 Relaxing activity on the isolated aorta (30 mM KCl contracted); design: species or system Japanese white rabbit; settings: for EC50: Oryctolagus cuniculus, read-out: EC50 (concentration for 50% relaxation); for relaxing / vasodilating activity on isolated aorta (in words): Table 8, comparison with nifedipine and nicardipine hydrochloride, etc. where stated
Protocol: Japanese white rabbit (weighing 2.3-2.7 kg) was sacrificed by bleeding from common carotid artery. Immediately, the aorta was isolated and cut into a sprial strip. The strip preparation was vertically suspended under a resting tension of 2.0 g in a tissue bath containing 20 ml of modified Ringer solution while bubbling with a mixture of 95% O2 +5% CO2 by connecting one end of the strip to a lever of the above-mentioned FD pick up. The aortic strip was contracted with 30 mM KCl. When the contraction became constant, the test compound was accumulatively administered, and the relaxing effect was measured. After the final treatment, 10^-4T M papaverine was administered and the maximum relaxation obtained thereby was taken as 100%. In comparison with the maximum relaxation obtained by papaverine, the rate of relaxation by the test compounds was evaluated, and the concentration of the test compounds for obtaining 50% relaxation (EC50) was calculated.
The test compound was dissolved in ethanol, and the solution was diluted in 100 to 1×10^4 folds with a nutrient solution, and the diluted solution was administered.

isolated heart [3] = assay: Experiment 2-1 Activity on isolated heart; design: species or system Japanese white rabbit; settings: for activation at 3 µg/heart / inhibition at 3 µg/heart, 3 µg/heart / inhibition at 3 µg/heart: Oryctolagus cuniculus, 3 μg/heart; for activation at 3 µg/heart: read-out: Increase of coronary perfusion; for inhibition at 3 µg/heart, 3 µg/heart: read-out: Inhibitory rate of systole; for inhibition at 3 µg/heart: read-out: Reducing rate of heart pulse
In short: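 Isolated heart preparation from Japanese white rabbits (2.2–2.5 kg) anaesthetised with nembutal 20 mg/kg i.v. Compound was given after 90 min of stabilisation. Perfusion volume was measured by drop counting, and heart rate and contractility via a force-displacement transducer.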

[4] = Experiment 4-2 Acute toxicity, rats; settings: rat, in vivo, po, 4 week age, 7 days
Description: (§1) Wistar male and female rats (4 week age) and ddy male and female mice (4 week age) were used. The compounds of Example Nos. 82 and 83 were each orally administered to […].

isolated heart [5] = assay: Experiment 2-2 Activity onto the isolated heart (with duration); design: species or system Japanese white rabbit; settings: for Coronary perfusion Duration: time until perfusion volume returned to initial level; for activation at 3 µg/heart / inhibition at 3 µg/heart: Oryctolagus cuniculus; for activation at 3 µg/heart: read-out: Coronary perfusion Increase
Protocol: Japanese white rabbit (weighing 2.2-2.5 kg) was anesthetized by introvenous injection of nembutal (20 mg/kg) and then sacrificed by bleeding from common carotid artery. […] There were measured the perfusion volume with a drop-counting meter (ET-600G type, manufactured by Nippon Koden K.K.) and the heart pulse and the contractility via a force-displacement transducer (FD pick up, SB-IT type, manufactured by Nippon Koden K.K.) (for measuring heart pulse, an instant pulse meter (AT-601G type, minufactured by Nippon Koden K.K.) being further used).
The test compounds were dissolved in ethanol, and the solution was diluted in 100-fold with purified water, and the diluted solution was administered in an amount of 0.1 ml/heart (i.e. 3 μg/heart).
The activity was measured in the same manner as described in Experiment 2-1 except that in some test compounds, the dose was in 1 μg/heart. Besides, the duration of the activity was evaluated by counting the time until the coronary perfusion volume became to the initial level before the administration of the test compound.

[6] = Experiment 4-2 Acute toxicity, mice; settings: mouse, in vivo, po, 4 week age, 7 days
Description: as §1

[7] = system: Spontaneously hypertensive male rats; assay: Experiment 1-2 Hypotensive activity (oral, 8 hours); assay type: in vivo, rat; settings: for Maximum hypotension / Recovering time / Time for recovering 1/2 of max. hypotension / Time until reaching to max. hypotension: 1 mg/kg oral; for hypotensive activity (in words): Table 5, comparison with nifedipine and nicardipine hydrochloride where stated
Protocol: Spontaneously hypertensive male rats (13-15 week age, one group: 3 rats) were used. […] The rats were fixed in a Howlman cage without fasting, and the femoral arterial pressure was measured by a direct method without anesthesia with a cannula which was previously inserted into the femoral artery of the animal, via a pressure transducer (MPU-0.5, manufactured by Nippon Koden K.K.). The test compounds were orally administered in the form of a suspension in 0.5% methyl cellulose solution in a dose of 10 mg/kg (in some compounds, 3 mg/kg). In the control group, only 0.5% methyl cellulose solution was administered likewise. The blood pressure was measured for 5 hours after the administration of test compounds.
The hypotensive activity was measured in the same manner as described in Experiment 1-1 except that the rats were used in 3-5 rats per each group, and the test compounds were administered in a dose of 1 mg/kg (some compounds, 3 mg/kg), and the blood pressure was measured for 8 hours after the administration of test compounds.

[8] = 30 mM KCl contraction, maximum relaxation by papaverine = 100%
[9] = 3 μg/heart, read-out: Inhibitory rate of systole
[10] = 3 μg/heart, read-out: Reducing rate of heart pulse

Row | SMILES | Recovering time ([1]; 3 mg/kg oral) [h] | Time for recovering 1/2 of max. hypotension ([1]; 3 mg/kg oral) [h] | Time until reaching to max. hypotension ([1]; 3 mg/kg oral) [min] | Maximum hypotension ([1]; 3 mg/kg oral) [mmHg] | hypotensive activity (in words) [1] | LD50 at 168 h [2] [mg/kg] | EC50 (isolated aorta; [8]) [µM] | relaxing / vasodilating activity on isolated aorta (in words) (isolated aorta) | activation at 3 µg/heart (isolated heart [3]) [%] | inhibition at 3 µg/heart, 3 µg/heart (isolated heart [3]) [%] | inhibition at 3 µg/heart (isolated heart [3]) [%] | Coronary perfusion Duration (isolated heart [5]; 3 μg/heart) [min] | Maximum hypotension [7] [mmHg] | Recovering time [7] [h] | Time for recovering 1/2 of max. hypotension [7] [h] | Time until reaching to max. hypotension [7] [min] | Recovering time ([1]; 10 mg/kg oral) [h] | Time for recovering 1/2 of max. hypotension ([1]; 10 mg/kg oral) [h] | Time until reaching to max. hypotension ([1]; 10 mg/kg oral) [min] | Maximum hypotension ([1]; 10 mg/kg oral) [mmHg] | further results
1 | CCCCCCCCOC(=O)C1=C(C)NC(C)=C(C(=O)NC(C)C)C1c1ccccc1[N+](=O)[O-] (stereo not shown) [Example 2, n-octyl 2,6-dimethyl-3-isopropylaminocarbonyl-4-(o-nitrophenyl)-1,4-dihydropyridine-5-carboxylate] | > 5.0 | 5.0 | 30 | 55 | the same or more potent activity with longer duration; also recorded: potent hypotensive activity | 10 to 100 | 0.3 | somewhat weak vasodilating activity | 17 | 50 | 25 | – | – | – | – | – | – | – | – | – | inhibitions on the heart pulse and contactility (in words) (isolated heart [3]; Table 6): moderate inhibitions on the heart pulse and contactility
2 | CCCCCCCCOC(=O)C1=C(C)NC(C)=C(C(=O)NC2CC2)C1c1ccccc1[N+](=O)[O-] (stereo not shown) [Example 82, n-octyl 2,6-dimethyl-3-cyclopropylaminocarbonyl-4-(o-nitrophenyl)-1,4-dihydropyridine-5-carboxylate] | – | – | – | – | – | – | 0.44 | somewhat weak vasodilating activity | – | – | – | > 120 | 48 | > 8.0 | > 8.0 | 180 | – | – | – | – | LD50 at 168 h ([4]; female rats): 50 mg/kg; LD50 at 168 h ([4]; male rats): 320 mg/kg; activation at 3 µg/heart (isolated heart [5]; 3 μg/heart): 39%; inhibition at 3 µg/heart (isolated heart [5]; [9]): 30%; inhibition at 3 µg/heart (isolated heart [5]; [10]): 25%; LD50 at 168 h ([6]; female mice): 1140 mg/kg; LD50 at 168 h ([6]; male mice): 1280 mg/kg; hypotensive activity (in words) [7]: the same or more potent hypotensive activity with longer duration; also recorded: potent hypotensive activity
3 | CCCCCCOC(=O)C1=C(C)NC(C)=C(C(=O)NC(C)C)C1c1ccccc1[N+](=O)[O-] (stereo not shown) [Example 7, n-hexyl 2,6-dimethyl-3-isopropylaminocarbonyl-4-(o-nitrophenyl)-1,4-dihydropyridine-5-carboxylate] | – | – | – | – | the same or more potent activity with longer duration; also recorded: potent hypotensive activity | > 1000 | 0.13 | somewhat weak vasodilating activity | 45 | 30 | 25 | – | – | – | – | – | > 5.0 | 5.0 | 30 | 45 | inhibitions on the heart pulse and contactility (in words) (isolated heart [3]; Table 6): moderate inhibitions on the heart pulse and contactility; coronary vasodilating activity (in words) (isolated heart [3]; Table 6, comparison with nifedipine and nicardipine hydrochloride, etc.): the same or more potent coronary vasodilating activity with longer duration
4 | CCCCCCCCCOC(=O)C1=C(C)NC(C)=C(C(=O)NC(C)C)C1c1ccccc1[N+](=O)[O-] (stereo not shown) [Example 3, n-nonyl 2,6-dimethyl-3-isopropylaminocarbonyl-4-(o-nitrophenyl)-1,4-dihydropyridine-5-carboxylate] | > 5.0 | > 5.0 | 30 | 60 | – | 500 to 1000 | 0.18 | – | 40 | 55 | 20 | – | – | – | – | – | > 5.0 | > 5.0 | 30 | 91 | –
5 | COC(=O)C1=C(C)NC(C)=C(C(=O)OC)C1c1ccccc1[N+](=O)[O-] [Compound A, dimethyl 1,4-dihydro-2,6-dimethyl-4-(2-nitophenyl)3,5-pyridinedicarboxylate, reference compound] | – | – | – | – | – | – | – | – | 40 | 35 | 10 | < 10 | 55 | 3.0 to 4.0 | 2.0 | 30 | 4.0 | 1.5 | 15 | 49 | activation at 3 µg/heart (isolated heart [5]; 3 μg/heart): 40%; inhibition at 3 µg/heart (isolated heart [5]; [9]): 35%; inhibition at 3 µg/heart (isolated heart [5]; [10]): 10%; EC50 (isolated aorta): 0.041 µM
6 | CCCCCCCCCOC(=O)C1=C(C)NC(C)=C(C(=O)NC2CC2)C1c1ccccc1[N+](=O)[O-] (stereo not shown) [Example 83, n-nonyl 2,6-dimethyl-3-cyclopropylaminocarbonyl-4-(o-nitrophenyl)-1,4-dihydropyridine-5-carboxylate] | – | – | – | – | – | – | – | somewhat weak vasodilating activity | – | – | – | > 120 | 61 | > 8.0 | > 8.0 | 180 | – | – | – | – | LD50 at 168 h ([4]; female rats): ≤ 10 mg/kg; LD50 at 168 h ([4]; male rats): 100 to 500 mg/kg; activation at 3 µg/heart (isolated heart [5]): 42%; inhibition at 3 µg/heart (isolated heart [5]; read-out: Inhibitory rate of systole): 50%; inhibition at 3 µg/heart (isolated heart [5]; read-out: Reducing rate of heart pulse): 20%; EC50 (isolated aorta): 0.29 µM; hypotensive activity (in words) [7]: the same or more potent hypotensive activity with longer duration; also recorded: potent hypotensive activity
